Like-named read-outs stand apart in the source and are kept apart here.
Tests used:
UGT1A9 = target: T1, UGT1A9 (Homo sapiens, UniProt O60656); conditions: cited from earlier work
T1 sequence (O60656 26-530): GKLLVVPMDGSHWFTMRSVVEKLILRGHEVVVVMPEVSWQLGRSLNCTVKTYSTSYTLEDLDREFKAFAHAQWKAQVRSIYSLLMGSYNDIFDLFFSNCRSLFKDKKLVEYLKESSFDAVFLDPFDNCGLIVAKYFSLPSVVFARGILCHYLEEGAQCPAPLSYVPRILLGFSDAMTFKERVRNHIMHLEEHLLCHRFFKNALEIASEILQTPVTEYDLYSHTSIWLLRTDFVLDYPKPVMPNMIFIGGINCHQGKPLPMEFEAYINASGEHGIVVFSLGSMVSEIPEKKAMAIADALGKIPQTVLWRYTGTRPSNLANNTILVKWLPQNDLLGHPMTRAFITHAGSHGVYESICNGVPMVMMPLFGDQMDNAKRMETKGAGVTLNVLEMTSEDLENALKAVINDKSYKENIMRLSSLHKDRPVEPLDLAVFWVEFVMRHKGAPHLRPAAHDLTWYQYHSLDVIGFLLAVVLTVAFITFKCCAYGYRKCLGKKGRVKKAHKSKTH

BCRP = target: T2, BCRP (Homo sapiens, UniProt Q9UNQ0); test: B to A transport of [3-H]estrone-3-sulfate in LLC-PK1-BCRP cells; format: in vitro ADME; conditions: human, LLC-PK1-BCRP cell monolayers on filter membranes, probe [3H]estrone-3-sulfate (0.1 μM); LLC-PK1-BCRP cells; B to A transport of 0.1 μM [3-H]estrone-3-sulfate; read-out: IC50 for inhibition of BCRP transport
T2 sequence (Q9UNQ0 1-655): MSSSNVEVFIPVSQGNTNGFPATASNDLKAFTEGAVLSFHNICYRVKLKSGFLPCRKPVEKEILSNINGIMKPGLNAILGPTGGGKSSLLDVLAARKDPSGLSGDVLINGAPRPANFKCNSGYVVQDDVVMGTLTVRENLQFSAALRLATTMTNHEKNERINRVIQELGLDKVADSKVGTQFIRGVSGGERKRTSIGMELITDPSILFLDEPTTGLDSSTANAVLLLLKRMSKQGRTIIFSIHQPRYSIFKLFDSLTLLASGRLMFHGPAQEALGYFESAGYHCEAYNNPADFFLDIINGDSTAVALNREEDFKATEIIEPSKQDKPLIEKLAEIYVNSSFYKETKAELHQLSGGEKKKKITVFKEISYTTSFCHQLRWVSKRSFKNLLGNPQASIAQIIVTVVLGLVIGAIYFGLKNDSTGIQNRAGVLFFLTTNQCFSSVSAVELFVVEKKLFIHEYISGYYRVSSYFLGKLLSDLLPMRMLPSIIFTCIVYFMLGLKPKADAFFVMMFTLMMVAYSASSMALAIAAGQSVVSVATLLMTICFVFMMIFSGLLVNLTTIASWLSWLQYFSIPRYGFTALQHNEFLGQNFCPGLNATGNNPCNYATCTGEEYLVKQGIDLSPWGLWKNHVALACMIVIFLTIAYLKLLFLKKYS

[1] = read-out: Ki for inhibition of UGT1A9 activities, recombinant and human liver microsomal UGT1A9

| SMILES | Ki (UGT1A9; [1]) [nM] | also measured |
| --- | --- | --- |
| Cc1ccc([C@@H]2O[C@H](CO)[C@@H](O)[C@H](O)[C@H]2O)cc1Cc1ccc(-c2ccc(F)cc2)s1 [canagliflozin] | 1400 to 3000 |  |
| CCOc1ccc(Cc2cc([C@@H]3O[C@H](CO)[C@@H](O)[C@H](O)[C@H]3O)ccc2Cl)cc1 [dapagliflozin] | 11000 to 15000 |  |
| CNC(=O)c1cc(Oc2ccc(NC(=O)Nc3ccc(Cl)c(C(F)(F)F)c3)c(F)c2)ccn1 [regorafenib] |  | Ki (UGT1A9): 700 nM |
| CNC(=O)c1cc(Oc2ccc(NC(=O)Nc3ccc(Cl)c(C(F)(F)F)c3)cc2)ccn1 [sorafenib] | 700 |  |
| O=C(O)c1cc(/N=N/c2ccc(S(=O)(=O)Nc3ccccn3)cc2)ccc1O [sulfasalazine] |  | IC50 (BCRP): 390 nM |
